Measured values published in patent publication US12172995B2, “Substituted indole and indazole compounds” (BRISTOL-MYERS SQUIBB COMPANY, priority 2018, dated 2024).

Tests used:
Assay type in all cases: cell-based
human TLR7 = biological target: T1, human TLR7 (Homo sapiens, UniProt Q9NYK1); assay: TLR7 inhibition reporter assay (HEK-Blue SEAP); conditions: HEK-Blue cells overexpressing human TLR7, stimulated with gardiquimod 7.5 μM, 22 hour incubation
T1 construct: host or cells: HEK-Blue cells
T1 sequence (Q9NYK1 27-1049): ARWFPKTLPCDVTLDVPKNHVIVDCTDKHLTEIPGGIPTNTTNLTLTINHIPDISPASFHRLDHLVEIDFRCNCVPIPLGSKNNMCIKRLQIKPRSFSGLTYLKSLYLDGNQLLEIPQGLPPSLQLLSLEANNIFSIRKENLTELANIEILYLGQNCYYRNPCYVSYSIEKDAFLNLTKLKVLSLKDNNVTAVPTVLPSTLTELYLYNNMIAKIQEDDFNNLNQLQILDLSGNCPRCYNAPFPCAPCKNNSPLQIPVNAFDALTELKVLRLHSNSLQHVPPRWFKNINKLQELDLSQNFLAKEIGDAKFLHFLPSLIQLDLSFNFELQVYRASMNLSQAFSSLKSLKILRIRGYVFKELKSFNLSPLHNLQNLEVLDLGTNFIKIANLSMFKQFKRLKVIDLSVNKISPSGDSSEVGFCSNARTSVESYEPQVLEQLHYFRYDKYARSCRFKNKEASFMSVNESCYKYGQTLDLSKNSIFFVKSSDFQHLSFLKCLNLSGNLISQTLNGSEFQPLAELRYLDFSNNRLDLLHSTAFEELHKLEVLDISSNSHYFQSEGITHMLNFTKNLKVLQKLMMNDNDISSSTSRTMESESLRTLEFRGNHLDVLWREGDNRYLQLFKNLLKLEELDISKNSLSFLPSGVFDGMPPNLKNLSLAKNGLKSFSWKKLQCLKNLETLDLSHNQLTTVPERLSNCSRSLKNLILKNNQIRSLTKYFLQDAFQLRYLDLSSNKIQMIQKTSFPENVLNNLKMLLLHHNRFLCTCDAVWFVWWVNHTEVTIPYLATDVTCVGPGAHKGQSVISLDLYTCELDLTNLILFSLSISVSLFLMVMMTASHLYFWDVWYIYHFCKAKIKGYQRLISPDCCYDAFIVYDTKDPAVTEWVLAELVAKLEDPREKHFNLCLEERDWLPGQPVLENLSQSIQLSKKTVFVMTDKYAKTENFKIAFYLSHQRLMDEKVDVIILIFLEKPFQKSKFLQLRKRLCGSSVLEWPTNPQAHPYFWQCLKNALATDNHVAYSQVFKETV
Procedure, shortened: (§1)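 Reporter HEK-Blue lines; cpd 0.05 nM–50 μM, 30 min preincubation RT; agonist: TLR7 gardiquimod 7.5 μM, TLR8 R848 15.9 μM, TLR9 ODN2006 5 nM; 22 h 37 °C; SEAP detected colorimetrically; % inhib vs known inhibitor.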

human TLR9 = biological target: T2, human TLR9 (Homo sapiens, UniProt Q9NR96); assay: TLR9 inhibition reporter assay (HEK-Blue SEAP); conditions: HEK-Blue cells overexpressing human TLR9, stimulated with ODN2006 5 nM, 22 hour incubation
T2 construct: host or cells: HEK-Blue cells
T2 sequence (Q9NR96 26-1032): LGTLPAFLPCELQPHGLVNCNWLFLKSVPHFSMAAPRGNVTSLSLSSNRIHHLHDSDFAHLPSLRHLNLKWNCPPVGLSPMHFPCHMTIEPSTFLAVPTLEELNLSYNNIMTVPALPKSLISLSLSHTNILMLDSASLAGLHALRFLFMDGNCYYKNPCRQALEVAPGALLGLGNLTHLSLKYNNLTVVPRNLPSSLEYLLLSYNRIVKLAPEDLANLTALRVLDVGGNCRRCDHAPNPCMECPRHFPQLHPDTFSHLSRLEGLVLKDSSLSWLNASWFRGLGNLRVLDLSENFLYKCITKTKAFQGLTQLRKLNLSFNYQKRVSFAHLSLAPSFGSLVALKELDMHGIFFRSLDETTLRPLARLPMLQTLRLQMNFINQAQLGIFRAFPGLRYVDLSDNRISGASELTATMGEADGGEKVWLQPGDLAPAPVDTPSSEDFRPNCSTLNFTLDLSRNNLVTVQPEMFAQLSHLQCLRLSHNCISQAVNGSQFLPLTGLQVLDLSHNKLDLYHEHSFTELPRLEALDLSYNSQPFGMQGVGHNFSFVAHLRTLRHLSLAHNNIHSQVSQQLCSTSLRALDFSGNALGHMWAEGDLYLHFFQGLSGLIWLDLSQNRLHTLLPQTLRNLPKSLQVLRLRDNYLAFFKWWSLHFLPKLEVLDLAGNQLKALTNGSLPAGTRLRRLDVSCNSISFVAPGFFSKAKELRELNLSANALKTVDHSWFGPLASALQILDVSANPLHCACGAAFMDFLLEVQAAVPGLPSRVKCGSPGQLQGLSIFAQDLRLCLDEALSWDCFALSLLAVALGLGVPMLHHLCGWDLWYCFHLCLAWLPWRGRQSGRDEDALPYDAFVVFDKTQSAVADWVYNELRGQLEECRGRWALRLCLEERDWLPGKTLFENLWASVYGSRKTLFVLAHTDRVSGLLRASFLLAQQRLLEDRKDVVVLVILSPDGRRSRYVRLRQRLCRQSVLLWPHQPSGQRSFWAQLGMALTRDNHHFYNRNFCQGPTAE
Procedure, shortened: as §1

human TLR8 = biological target: T3, human TLR8 (Homo sapiens, UniProt Q9NR97); assay: TLR8 inhibition reporter assay (HEK-Blue SEAP); conditions: HEK-Blue cells overexpressing human TLR8, stimulated with R848 15.9 μM, 22 hour incubation
T3 construct: host or cells: HEK-Blue cells
T3 sequence (Q9NR97 27-1041): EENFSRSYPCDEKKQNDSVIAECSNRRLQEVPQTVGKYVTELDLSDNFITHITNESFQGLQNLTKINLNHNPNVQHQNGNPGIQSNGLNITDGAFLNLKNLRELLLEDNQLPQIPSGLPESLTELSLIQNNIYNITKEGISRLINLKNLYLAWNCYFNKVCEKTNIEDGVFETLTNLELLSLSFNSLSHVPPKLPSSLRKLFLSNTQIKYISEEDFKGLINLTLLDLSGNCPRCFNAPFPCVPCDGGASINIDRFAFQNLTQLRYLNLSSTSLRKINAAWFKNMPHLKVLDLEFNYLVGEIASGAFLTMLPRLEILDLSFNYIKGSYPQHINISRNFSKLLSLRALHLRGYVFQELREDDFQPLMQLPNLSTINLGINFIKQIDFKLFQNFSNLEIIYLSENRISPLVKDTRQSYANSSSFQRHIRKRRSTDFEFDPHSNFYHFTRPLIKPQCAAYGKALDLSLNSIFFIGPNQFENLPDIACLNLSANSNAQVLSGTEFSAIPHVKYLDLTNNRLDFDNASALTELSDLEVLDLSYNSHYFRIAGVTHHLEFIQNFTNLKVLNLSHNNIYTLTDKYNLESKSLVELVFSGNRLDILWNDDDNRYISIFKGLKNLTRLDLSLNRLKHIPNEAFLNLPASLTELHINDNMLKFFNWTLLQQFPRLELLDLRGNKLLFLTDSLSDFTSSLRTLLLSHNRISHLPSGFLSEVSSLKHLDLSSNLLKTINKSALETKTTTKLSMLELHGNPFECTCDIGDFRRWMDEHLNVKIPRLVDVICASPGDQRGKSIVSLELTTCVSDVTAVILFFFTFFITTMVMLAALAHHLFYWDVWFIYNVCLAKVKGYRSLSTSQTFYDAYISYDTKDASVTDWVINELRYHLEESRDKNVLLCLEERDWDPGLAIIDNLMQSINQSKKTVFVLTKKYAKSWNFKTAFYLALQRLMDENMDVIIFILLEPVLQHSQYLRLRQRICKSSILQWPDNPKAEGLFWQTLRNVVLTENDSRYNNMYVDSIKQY
Procedure, shortened: as §1

Compound | IC50 (human TLR7) | IC50 (human TLR9) | IC50 (human TLR8)
COc1ccc(-c2cc3[nH]nc(C4CCCNC4)c3cc2C)cc1OC (stereo not drawn) [Example 62, 6-(3,4-dimethoxyphenyl)-5-methyl-3-(piperidin-3-yl)-1H-indazole] | 824 nM | 3200 nM | 5.2 nM
COc1cc(-c2cc3[nH]ncc3cc2C)cn2ncnc12 [Example 64, 8-methoxy-6-(5-methyl-1H-indazol-6-yl)-[1,2,4]triazolo[1,5-a]pyridine] | 905 nM | 9040 nM | 41.8 nM
COc1cc(-c2cc(C)c3cn[nH]c3c2)cn2ncnc12 [Example 66, 8-methoxy-6-(4-methyl-1H-indazol-6-yl)-[1,2,4]triazolo[1,5-a] pyridine] | 218 nM | 8840 nM | 45.4 nM
Cc1cc2c(C3CCN(CCS(C)(=O)=O)CC3)n[nH]c2cc1-c1cc(C)c2ncnn2c1 [Example 68, 8-methyl-6-(5-methyl-3-(1-(2-(methylsulfonyl)ethyl)piperidin-4-yl)-1H-indazol-6-yl)-[1,2,4]triazolo[1,5-a]pyridine] | 68 nM | 13000 nM | 2.5 nM
Cc1cc2c(C3CCCN(CC(=O)N(C)C)C3)n[nH]c2cc1-c1cc(C)c2ncnn2c1 (stereo not drawn) [Example 53, N,N-dimethyl-2-(3-(5-methyl-6-(8-methyl-[1,2,4]triazolo[1,5-a]pyridin-6-yl)-1H-indazol-3-yl)piperidin-1-yl)acetamide] | 44.2 nM | 5830 nM | 1.2 nM

The next compounds have a lower IC50 (human TLR7) than those just listed; values first:

IC50 (human TLR7) | IC50 (human TLR9) | IC50 (human TLR8) | Compound
4.9 nM | 2310 nM | 8.1 nM | COc1cc(-c2cc(C)c3c(OC4CCC(N(C)C)CC4)n[nH]c3c2)cn2ncnc12 (single isomer, unassigned) [Example 183, 4-((6-(8-methoxy-[1,2,4]triazolo[1,5-a]pyridin-6-yl)-4-methyl-1H-indazol-3-yl)oxy)-N,N-dimethylcyclohexan-1-amine]
1.3 nM | 6450 nM | 31.3 nM | COc1cc(-c2cc3[nH]nc(C4CCC(N5CC(OC)C5)CC4)c3cc2C(C)C)cn2ncnc12 (single isomer, unassigned) [Example 148, 6-(5-isopropyl-3-(4-(3-methoxyazetidin-1-yl)cyclohexyl)-1H-indazol-6-yl)-8-methoxy-[1,2,4]triazolo[1,5-a]pyridine]
3.5 nM | 6710 nM | 1.5 nM | Cc1cc(-c2cc3[nH]nc(C4CCC(N5CC6(C5)CS(=O)(=O)C6)CC4)c3cc2C(C)C)cn2ncnc12 (single isomer, unassigned) [Example 143, 6-(4-(5-isopropyl-6-(8-methyl-[1,2,4]triazolo[1,5-a]pyridin-6-yl)-1H-indazol-3-yl)cyclohexyl)-2-thia-6-azaspiro[3.3]heptane 2,2-dioxide]
0.7 nM | 7890 nM | 0.1 nM | CCc1cc2c(OC3CCC(N(C)C)CC3)n[nH]c2cc1-c1cc(C)c2ncnn2c1 (single isomer, unassigned) [Example 192, 4-((5-ethyl-6-(8-methyl-[1,2,4]triazolo[1,5-a]pyridin-6-yl)-1H-indazol-3-yl)oxy)-N,N-dimethylcyclohexan-1-amine]
1.5 nM | 8540 nM | 0.7 nM | Cc1cc(-c2cc3[nH]nc(C4CCC(N5CC(OC(C)C)C5)CC4)c3cc2C(C)C)cn2ncnc12 (single isomer, unassigned) [Example 162, 6-(3-(4-(3-isopropoxyazetidin-1-yl)cyclohexyl)-5-isopropyl-1H-indazol-6-yl)-8-methyl-[1,2,4]triazolo[1,5-a]pyridine]
0.2 nM | 4200 nM | 0.1 nM | Cc1cc(-c2cc3[nH]nc(C4CCC(N5CCCC5)CC4)c3cc2C(C)C)cn2ncnc12 (single isomer, unassigned) [Example 130, 6-(5-isopropyl-3-(4-(pyrrolidin-1-yl)cyclohexyl)-1H-indazol-6-yl)-8-methyl-[1,2,4]triazolo[1,5-a]pyridine]
